Measurements reported in patent publication US9549949B2, “Antiviral agent” (NBC MESHTEC, INC., priority 2008, dated 2017).
“And” between values parts separate entries of the source, which are not always exact repeats. Equal entries are not always repeated. Where two headings read alike, the source gives them in different places.

Assays:
Assay type in all cases: cell-based
[1] = system: influenza virus (influenza A/kitakyusyu/159/93 (H3N2)); test: Virus inactivation, plaque assay on MDCK cells; conditions: enveloped influenza virus, time period as short as 1 minute
[2] = system: feline calicivirus (F9 strain); test: Virus inactivation, plaque assay on CrFK cells; conditions: non-enveloped feline calicivirus, time period as short as 1 minute
[3] = system: influenza virus (influenza A/kitakyusyu/159/93 (H3N2))
[4] = conc. of substance 0.5 mass %, 10 minutes at room temperature, control (PBS) 128
[5] = conc. of substance 5 mass %, 10 minutes at room temperature, control (PBS) 128

In the case of `[Cu+].[I-]` [Example 1, Copper (I) iodide], the “virus inactivation activity (in words)” value [1] is reported as “sufficiently high virus inactivation activity”, the “virus inactivation activity (in words)” value [2] is reported as “sufficiently high virus inactivation activity” and the HA titer [3, 4] is reported as 32. For the same compound, the HA titer [3, 5] was 8.
`[I][In]([I])[I]` [Example 21, Indium (III) iodide] was tested, and the HA titer [3, 4] was <2 and the HA titer [3, 5] was <2.
Work on `[I][Au]` [Example 14, Gold (I) iodide] yielded an HA titer [3, 4] of 64 and an HA titer [3, 5] of 4.
In the case of `[I][Pd][I]` [Example 12, Palladium (II) iodide], the HA titer [3, 4] is reported as 64 and the HA titer [3, 5] is reported as 2.
For `[I][Bi]([I])[I]` [Example 13, Bismuth (III) iodide], the HA titer [3, 4] was 64 and the HA titer [3, 5] was 8.
`[I-].[Tl+]` [Example 9, Thallium (I) iodide] was tested, and the HA titer [3, 4] was 64 and the HA titer [3, 5] was 32.
With `[I][Ge]([I])([I])[I]` [Example 5, Germanium (IV) iodide] the HA titer [3, 4] was <2 and the HA titer [3, 5] was <2.
For `[Co+2].[I-].[I-]` [Example 17, Cobalt (II) iodide], the HA titer [3, 4] was 8 and the HA titer [3, 5] was <2.
In the case of `[Cl][Cu]` [Example 22, Copper (I) chloride], the “virus inactivation activity (in words)” value [1] is reported as “sufficiently high virus inactivation activity”, the “virus inactivation activity (in words)” value [2] is reported as “sufficiently high virus inactivation activity” and the HA titer [3, 4] is reported as <2. For the same compound, the HA titer [3, 5] was <2.
`N#C[S-].[Cu+]` [Example 25, Copper (I) thiocyanate] gave an HA titer [3, 4] of 64 and an HA titer [3, 5] of 16.
In the case of `[I][Ni][I]` [Example 18, Nickel (II) iodide], the HA titer [3] is reported as <2 and 4.
Silver (I) iodide [Example 20] gave an HA titer [3, 4] of 64 and an HA titer [3, 5] of 32.
Compound `[Cu].[O]=[Cu]` [Example 27, Copper (I) oxide] has an HA titer [3, 4] of 64 and an HA titer [3, 5] of 8.
In the case of `[Cu][Br]` [Example 23, Copper (I) bromide], the HA titer [3, 4] is reported as 32 and the HA titer [3, 5] is reported as <2.
`[I-].[I-].[I-].[I-].[Pt+4]` [Example 11, Platinum (IV) iodide] gave an HA titer [3, 4] of 64 and an HA titer [3, 5] of 32.
In the case of `CC(=O)[O-].[Cu+]` [Example 24, Copper (I) acetate], the HA titer [3] is reported as <2.
With `[I][Sn][I]` [Example 7, Tin (II) iodide] the HA titer [3, 4] was 2 and the HA titer [3, 5] was <2.
For `[I][Ir]([I])([I])[I]` [Example 4, Iridium (IV) iodide], the HA titer [3, 4] was 64 and the HA titer [3, 5] was 32.
Compound `[I][Sb]([I])[I]` [Example 3, Antimony (III) iodide] has an HA titer [3, 4] of 32 and an HA titer [3, 5] of 16.
In the case of `[I][Ge][I]` [Example 6, Germanium (II) iodide], the HA titer [3, 4] is reported as 2 and the HA titer [3, 5] is reported as <2.
With `[I-].[I-].[Zn+2]` [Example 19, Zinc (II) iodide] the HA titer [3, 4] was 4 and the HA titer [3, 5] was <2.
For `[I][Sn]([I])([I])[I]` [Example 8, Tin (IV) iodide], the HA titer [3, 4] was 2 and the HA titer [3, 5] was <2.
With `[Fe+2].[I-].[I-]` [Example 16, Iron (II) iodide] the HA titer [3, 4] was <2 and the HA titer [3, 5] was <2.
